This note sets out measurements from patent US7728146B2, “Enzyme inhibitors” (Probiodrug AG, priority 2006, dated 2010).

Structures are written as SMILES.

What is called IC50 is the concentration at which inhibition is half-maximal.

One assay addresses DP IV (Homo sapiens, UniProt P27487). Nature of the assay: DP IV inhibition IC50, parallel-synthesis compounds tested directly following synthesis (without purification). It is filed as biochemical. Also on record: IC50 DP4; other: tested directly following parallel synthesis, without purification; compounds of formula (Ib) from parallel synthesis, tested directly following synthesis. To be noted: DP IV inhibition; compounds of formula (Ib) from parallel synthesis, tested directly following synthesis (without purification); read-out: IC50. The method, boiled down: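 Porcine kidney or recombinant human enzyme (~40-50 μU/ml, HEPES buffer) hydrolysing Gly-Pro-pNA at room temperature, with 5% DMSO final; 11-point 1:2 dilutions from 100 μM final, in duplicate. pNA release read at 405 nm over ~18 min; slopes vs solvent control give residual activity, and IC50 comes from a 4-parameter fit.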
Take `Clc1ccc(-c2ncn(CCc3ccccc3Cl)c2C2CNC2)c(Cl)c1` [117b, 5-Azetidin-3-yl-1-[2-(2-chloro-phenyl)-ethyl]-4-(2,4-dichloro-phenyl)-1H-imidazole]: the IC50 stood at 39.7 µM.
Regarding `CC(N)c1c(-c2ccc(Cl)cc2Cl)ncn1CCN1CCOCC1` (stereo not shown) [118b, 1-[5-(2,4-Dichloro-phenyl)-3-(2-morpholin-4-yl-ethyl)-3H-imidazol-4-yl]-ethylamine], the IC50 turned out to be 49.6 µM.
The same measure, in the same setting: the result for `NCc1c(-c2ccc(Cl)cc2Cl)ncn1Cc1cc(F)ccc1F` [119b, C-[5-(2,4-Dichloro-phenyl)-3-(2,5-difluoro-benzyl)-3H-imidazol-4-yl]-methylamine] reads 2.8 µM.
On the same count and under the same terms, the same measure for `CCn1cnc(-c2ccc(Cl)cc2Cl)c1CN` [122b, C-[5-(2,4-Dichloro-phenyl)-3-ethyl-3H-imidazol-4-yl]-methylamine]: 46 µM.
On the same count and under the same terms, the result for `NCc1c(-c2ccc(Cl)cc2Cl)ncn1Cc1c(F)cccc1Cl` [123b, C-[3-(2-Chloro-6-fluoro-benzyl)-5-(2,4-dichloro-phenyl)-3H-imidazol-4-yl]-methylamine] reads 1.9 µM; that for `NCc1c(-c2ccc(Cl)cc2Cl)ncn1Cc1cc(Br)ccc1F` [124b, C-[3-(5-Bromo-2-fluoro-benzyl)-5-(2,4-dichloro-phenyl)-3H-imidazol-4-yl]-methylamine], 34.3 µM; that for `NCc1c(-c2ccc(Cl)cc2Cl)ncn1CC1CCCO1` (stereo not shown) [Example 17b, C-[5-(2,4-dichloro-phenyl)-3-(tetrahydro-furan-2-ylmethyl)-3H-imidazol-4-yl]-methylamine], 1.9 µM.
`NCc1c(-c2ccc(Cl)cc2Cl)ncn1Cc1cccc(F)c1` [Example 28b, C-[5-(2,4-dichloro-phenyl)-3-(3-fluoro-benzyl)-3H-imidazol-4-yl]-methylamine]: the concentration for half-maximal inhibition (IC50) was determined as 1.9 µM.

The assay is the same for the next values; noted with them: tested directly following parallel synthesis, without purification; read-out: IC50 DP4.
As for `NCc1c(-c2ccc(F)cc2Cl)ncn1Cc1cccs1` [Example 1a, C-[5-(2-Chloro-4-fluoro-phenyl)-3-thio-phen-2-yl-methyl-3H-imid-azol-4-yl]-methyl-amine], the concentration for half-maximal inhibition (IC50) was determined as 11.8 µM.
The same measure, in the same setting: the result for `NCc1c(-c2ccc(F)cc2Cl)ncn1Cc1ccco1` [Example 2a, C-[5-(2-Chloro-4-fluoro-phenyl)-3-furan-2-yl-methyl-3H-imid-azol-4-yl]-methyl-amine] reads 16.3 µM; that for `NCc1c(-c2ccc(F)cc2Cl)ncn1Cc1ccccc1Cl` [Example 3a, C-[3-(2-Chloro-benzyl)-5-(2-chlo-ro-4-fluoro-phenyl)-3H-imid-azol-4-yl]-methyl-amine], 18.1 µM.
On the same count and under the same terms, the same measure for `Cc1ccc(Cn2cnc(-c3ccc(F)cc3Cl)c2CN)o1` [Example 4a, C-[5-(2-Chloro-4-fluo-ro-phenyl)-3-(5-meth-yl-furan-2-yl-methyl)-3H-imid-azol-4-yl]-methyl-amine]: 34.3 µM; for `NCc1c(-c2ccc(F)cc2Cl)ncn1Cc1ccc(F)cc1` [Example 5a, C-[5-(2-Chloro-4-fluoro-phenyl)-3-(4-fluoro-benzyl)-3H-imid-azol-4-yl]-methyl-amine]: 10.9 µM; for `NCc1c(-c2ccc(F)cc2Cl)ncn1Cc1cccc(C(F)(F)F)c1` [Example 6a, C-[5-(2-Chloro-4-fluoro-phenyl)-3-(3-tri-fluoromethyl-benzyl)-3H-imid-azol-4-yl]-methyl-amine]: 17.2 µM.
The same measure, in the same setting: the same measure for `NCc1c(-c2ccc(F)cc2Cl)ncn1Cc1ccc(F)cc1F` [Example 7a, C-[5-(2-Chloro-4-fluoro-phenyl)-3-(2,4-difluoro-benzyl)-3H-imid-azol-4-yl]-methyl-amine]: 27.1 µM.
For `CCCn1cnc(-c2ccc(F)cc2Cl)c1CN` [Example 8a, C-[5-(2-Chloro-4-fluoro-phenyl)-3-pro-pyl-3H-imid-azol-4-yl]-methyl-amine], the IC50 is 48.7 µM.
The same measure, in the same setting: the result for `COc1cccc(Cn2cnc(-c3ccc(F)cc3Cl)c2CN)c1` [Example 9a, C-[5-(2-Chloro-4-fluoro-phenyl)-3-(3-methoxy-benzyl)-3H-imid-azol-4-yl]-methyl-amine] reads 16.3 µM; that for `NCc1c(-c2ccc(F)cc2Cl)ncn1Cc1cccc(F)c1` [Example 10a, C-[5-(2-Chloro-4-fluoro-phenyl)-3-(3-fluoro-benzyl)-3H-imid-azol-4-yl]-methyl-amine], 14.5 µM; that for `NCc1c(-c2ccc(F)cc2Cl)ncn1Cc1ccsc1` [Example 11a, C-[5-(2-Chloro-4-fluoro-phenyl)-3-thiophen-3-ylmethyl-3H-imidazol-4-yl]-methylamine], 4.6 µM.
Turning to `NCc1c(-c2ccc(F)cc2Cl)ncn1Cc1cc(Br)ccc1F` [Example 12a, C-[3-(5-Bromo-2-fluoro-benzyl)-5-(2-chloro-4-fluoro-phenyl)-3H-imid-azol-4-yl]-methyl-amine], the IC50 is 32.5 µM.
With `NCc1c(-c2ccc(F)cc2Cl)ncn1Cc1c(F)cccc1Cl` [Example 13a, C-[3-(2-Chloro-6-fluoro-benzyl)-5-(2-chloro-4-fluoro-phenyl)-3H-imid-azol-4-yl]-methyl-amine], the IC50 worked out at 36.1 µM.
Still for that read-out and setting: the result for `Cc1ccccc1Cn1cnc(-c2ccc(F)cc2Cl)c1CN` [Example 14a, C-[5-(2-Chloro-4-fluoro-phenyl)-3-(2-methyl-benzyl)-3H-imid-azol-4-yl]-methyl-amine] reads 19.9 µM.
Same read-out and setting: the result for `NCc1c(-c2ccc(F)cc2Cl)ncn1Cc1ccccc1` [Example 15, C-[3-Benzyl-5-(2-chloro-4-fluoro-phenyl)-3H-imid-azol-4-yl]-methyl-amine] reads 10.9 µM.
Consider `NCc1c(-c2ccc(F)cc2Cl)ncn1Cc1ccc2c(c1)OCO2` [Example 16a, C-[3-Ben-zo[1,3]di-oxol-5-yl-methyl-5-(2-chlo-ro-4-fluoro-phenyl)-3H-imid-azol-4-yl]-methyl-amine], for which the 50% inhibitory concentration (IC50) worked out at 28 µM.
Same read-out and setting: the result for `NCc1c(-c2ccc(F)cc2Cl)ncn1Cc1ccc(F)c(F)c1` [Example 17a, C-[5-(2-Chloro-4-fluoro-phenyl)-3-(3,4-difluoro-benzyl)-3H-imid-azol-4-yl]-methyl-amine] reads 19 µM; that for `CCOc1ccccc1Cn1cnc(-c2ccc(F)cc2Cl)c1CN` [Example 18a, C-[5-(2-Chloro-4-fluoro-phenyl)-3-(2-ethoxy-benzyl)-3H-imidazol-4-yl]-methylamine], 6.4 µM.
The same measure, in the same setting: the same measure for `NCc1c(-c2ccc(F)cc2Cl)ncn1Cc1ccccc1C(F)(F)F` [Example 19a, C-[5-(2-Chloro-4-fluoro-phenyl)-3-(2-tri-fluorometh-yl-benzyl)-3H-imid-azol-4-yl]-methyl-amine]: 35.2 µM; for `NCc1c(-c2ccc(F)cc2Cl)ncn1Cc1cccc(Cl)c1Cl` [Example 20a, C-[5-(2-Chloro-4-fluoro-phenyl)-3-(2,3-di-chloro-benzyl)-3H-imid-azol-4-yl]-meth-ylamine]: 34.3 µM.
Same read-out and setting: the same measure for `CC(C)(C)Cn1cnc(-c2ccc(F)cc2Cl)c1CN` [Example 21a, C-[5-(2-Chloro-4-fluoro-phenyl)-3-(2,2-di-methyl-propyl)-3H-imid-azol-4-yl]-methyl-amine]: 35.2 µM; for `NCc1c(-c2ccc(F)cc2Cl)ncn1Cc1ccc(Cl)cc1` [Example 22a, C-[3-(4-Chloro-benzyl)-5-(2-chloro-4-fluoro-phenyl)-3H-imid-azol-4-yl]-methyl-amine]: 37.9 µM.
With `NCc1c(-c2ccc(F)cc2Cl)ncn1Cc1ccccc1OC(F)(F)F` [Example 23a, C-[5-(2-Chloro-4-fluoro-phenyl)-3-(2-tri-fluoromethoxy-benzyl)-3H-imid-azl-4-yl]-methyl-amine], the IC50 was found to be 5.5 µM.
The same measure, in the same setting: the result for `Cc1ccc(Cn2cnc(-c3ccc(F)cc3Cl)c2CN)cc1` [Example 24a, C-[5-(2-Chloro-4-fluoro-phenyl)-3-(4-methyl-benzyl)-3H-imid-dazol-4-yl]-methyl-amine] reads 43.3 µM.
Same read-out and setting: the result for `NCc1c(-c2ccc(F)cc2Cl)ncn1Cc1ccc(Cl)c(Cl)c1` [Example 25a, C-[5-(2-Chloro-4-fluoro-phenyl)-3-(3,4-di-chloro-benzyl)-3H-imid-azol-4-yl]-methyl-amine] reads 33.4 µM; that for `NCc1c(-c2ccc(F)cc2Cl)ncn1Cc1c(Cl)cccc1Cl` [Example 26a, C-[5-(2-Chloro-4-fluoro-phenyl)-3-(2,6-di-chloro-benzyl)-3H-imid-azol-4-yl]-methyl-amine], 39.7 µM.
With `NCc1c(-c2ccc(F)cc2Cl)ncn1Cc1cc(F)ccc1F` [Example 27a, C-[5-(2-Chloro-4-fluoro-phenyl)-3-(2,5-difluoro-benzyl)-3H-imid-azol-4-yl]-methyl-amine], the IC50 was 22.6 µM.
For `NCc1c(-c2ccc(F)cc2Cl)ncn1Cc1ccccc1F` [Example 28a, C-[5-(2-Chloro-4-fluoro-phenyl)-3-(2-fluoro-benzyl)-3H-imid-azol-4-yl]-methyl-amine], the IC50 was determined as 19 µM.
Same read-out and setting: the result for `NCc1c(-c2ccc(F)cc2Cl)ncn1Cc1ccc(F)cc1Cl` [Example 29a, C-[3-(2-Chloro-4-fluoro-benzyl)-5-(2-chlo-ro-4-fluoro-phenyl)-3H-imid-azol-4-yl]-methyl-amine] reads 31.6 µM; that for `NCc1c(-c2ccc(F)cc2Cl)ncn1Cc1ccccn1` [Example 30a, C-[5-(2-Chloro-4-fluoro-phenyl)-3-pyri-din-2-yl-methyl-3H-imid-azol-4-yl]-methyl-amine], 25.3 µM; that for `NCc1c(-c2ccc(F)cc2Cl)ncn1Cc1cccnc1` [Example 31a, C-[5-(2-Chloro-4-fluoro-phenyl)-3-pyri-din-3-ylmethyl-3H-imid-azol-4-yl]-methyl-amine], 5.5 µM.
On the same count and under the same terms, the same measure for `NCc1c(-c2ccc(Cl)cc2Cl)ncn1Cc1cccs1` [Example 32a, C-[5-(2,4-Di-chloro-phenyl)-3-thio-phen-2-yl-methyl-3H-imid-azol-4-yl]-methyl-amine]: 0.1 µM.
